Measurements reported in patent US20100282247A1, “TREATMENT OF PULMONARY DISORDERS WITH AEROSOLIZED MEDICAMENTS SUCH AS VANCOMYCIN” (Novartis AG, priority 2007, published 2010).

Tests used:
S. aureus = conditions: lowered by CLSI; cited from earlier work
[1] = system: vancomycin resistant S. aureas; conditions: estimated; printed with "or more"; cited from earlier work
[2] = aerosolized versus systemic vancomycin, n=10, high suspicion for MRSA respiratory infection; cited from earlier work
[3] = system: vancomycin intermediate S. aureas; conditions: estimated; cited from earlier work
[4] = parenterally administered; cited from earlier work
[5] = system: Gram-positive, pneumonia-causing bacteria; assay: Reference MIC in tracheal aspirates (TA); format: cell-based, Staph species; conditions: locally in TA
Procedure: The dose-response to aerosolized vancomycin, administered in accordance with one or more embodiments of devices, apparatus and/or methods of the present invention was evaluated, as was the ability to deliver a predefined target multiple of an MIC for Gram-positive bacteria causing pneumonia, including, Staph species, in the tracheal aspirates (TA). […] Thus the desired multiple is 128 μg/mL.

gram-positive bacteria = conditions: P<=0.05, cited from earlier work
[6] = system: vancomycin susceptable S. aureas; conditions: estimated; cited from earlier work
[7] = in vivo
From the text: One or more embodiments of the invention comprise systems and method for delivering relatively high concentrations of medicament without undue precipitation of the medicament in the delivery system. The on-vent adapter with the pattern of aerosol generation is designed to allow up to 90% of aerosol enter the artificial airway and allow 45-80% of dose to reach aerosol to the lungs. Hand Held adapter delivers inhaled mass of 75-90% with 40-55% of dose reaching the lungs as aerosol (based on AMIK phase II Scintigraphy.) Initially in vitro testing was showing precipitation of Vancomycin in powder form on the inspiratory filter.

Compound	vancomycin breakpoint (S. aureus) [µg/mL]	reference MIC [1] [µg/mL]	sputum vancomycin concentrations [2]	reference MIC [3] [µg/mL]	levels in lung epithelial lining fluid as share of those seen in serum [4] [%]	reference MIC value [5] [µg/mL]	CDC-NNIS diagnostic criteria for ventilator-associated pneumonia (VAP) (gram-positive bacteria; aerosolized vancomycin (n=14) and/or gentamicin-sulfate, placebo 75.0% to 78.6%)	WBC at Day 14 (gram-positive bacteria; versus placebo)	bacterial resistance (gram-positive bacteria; versus placebo)	clinical pulmonary infection score CPIS (gram-positive bacteria; versus placebo)	use of systemic antibiotics (gram-positive bacteria; versus placebo)	ventilator weaning (gram-positive bacteria; versus placebo)	reference MIC [6] [µg/mL]	dose reaching the lungs as aerosol [7]	inhaled mass [7]
CN[C@H](CC(C)C)C(=O)N[C@H]1C(=O)N[C@@H](CC(N)=O)C(=O)N[C@H]2C(=O)N[C@H]3C(=O)N[C@H](C(=O)N[C@H](C(=O)O)c4cc(O)cc(O)c4-c4cc3ccc4O)[C@H](O)c3ccc(c(Cl)c3)Oc3cc2cc(c3O[C@@H]2O[C@H](CO)[C@@H](O)[C@H](O)[C@H]2O[C@H]2C[C@](C)(N)[C@H](O)[C@H](C)O2)Oc2ccc(cc2Cl)[C@H]1O [vancomycin]	2	16 to 32	significantly increases	8 to 16	~14	32	35.7% to 73.6%	lower	reduced	reduced	reduced	increased	2 to 4	–	–
NCC[C@H](O)C(=O)N[C@@H]1C[C@H](N)[C@@H](O[C@H]2O[C@H](CN)[C@@H](O)[C@H](O)[C@H]2O)[C@H](O)[C@H]1O[C@H]1O[C@H](CO)[C@@H](O)[C@H](N)[C@H]1O [AMIK]	–	–	–	–	–	–	–	–	–	–	–	–	–	40-55%	75-90%
